Results published in patent US20170204426A1, “MODIFIED BRASSICA PLANTS WITH INCREASED SEED OIL CONTENT” (BROOKHAVEN SCIENCE ASSOCIATES, LLC, priority 2014, published 2017).

Tests used:
AGPase = assay: Allosteric effect of 3-PGA on AGPase activity in oilseed rape embryo; format: biochemical, Brassica napus
Method: The intermediates PEP and 3-PGA are known to allosterically affect enzymatic activity of ATP-dependent PFK and AGPase, respectively.
[…] 500 μl of common extraction buffer [10% (v/v) glycerol, 0.25% (w/v) BSA, 0.1% (v/v) Triton X-100, 50 mM Hepes/KOH, pH 7.5, 10 mM MgCl2, 1 mM EDTA, 1 mM EGTA, 1 mM benzamidine, 1 mM ε-aminocapronic acid, 1 mM phenylmethylsulfonyl fluoride (PMSF), […], 1 mM dithiothreitol (DTT)] and c. 10 mg polyvinyl pyrrolidone. PMSF was added just before extraction. DTT was omitted when using peroxidase-based or MTT-based indicator reactions (MTT: methylthiazolyldiphenyl-tetrazolium bromide). A 96-head liquid handling robot (Evolution P3, Perkin Elmer, Wellesey, Mass., USA) was used to perform subsequent dilutions of these initial extracts and to load extracts on to 96-well micro plates. During this process micro plates were maintained at 4° C. using peltier cooled blocks. […] The concentration of the products of these stopped reactions (NAD+, NADH, NADPH or glycerol-3-phosphate) was then determined using cycling assays. […] Nitrate reductase and glutamine synthetase were determined using end point assays (Gibon et al, 2004, supra). […] After measuring PK activity at pH 8.0 and at pH 6.7, the plastidic and cytosolic activities were calculated accordingly.

ATP-dependent PFK = assay: Allosteric effect of PEP on ATP-dependent PFK activity in oilseed rape embryo; format: biochemical, Brassica napus
[1] = system: PPi-PFKs of Thermoproteus tenax, Naegleria fowleri, Methylococcus capsulatus or Amycolatopsis methanolica; settings: Reshetnikov et al. 2008; Alves et al.; cited from earlier work

O=C(O)[C@H](O)COP(=O)(O)O [3-PGA, 3-phosphoglycerate]
effect on enzymatic activity of AGPase (AGPase): clear activity changes

C=C(OP(=O)(O)O)C(=O)O [PEP, phosphoenolpyruvate]
effect on enzymatic activity of ATP-dependent PFK (ATP-dependent PFK): clear activity changes | inhibition of PPi-PFK by PEP [1]: not inhibited
